Source: patent US20100323979A1, “METHODS AND COMPOSITIONS FOR INHIBITING PROLIFERATION OF ANEUPLOID CELLS” (priority 2009, published 2010)

Tests used:
[1] = tested on: trisomic primary MEF cells; assay: Cell proliferation assay, trisomic MEFs; type: cell-based, mouse; conditions: for sensitivity in relation to size of the additional chromosome: trisomy 1 versus trisomy 16 or 19
Procedure: MEF cells were cultured in DMEM supplemented with 10% FBS, 2 mM glutamine, 50 U/ml penicillin, and 50 U/ml streptomycin. […] Lymphoma cells were cultured in IMDM supplemented with 10% FBS, 2 mM glutamine, 50U/ml penicillin, 50 U/ml streptomycin and […] beta-mercaptoethanol. All cells were cultured at 37° C. with 5% CO2 in a humidified environment. In all experiments, cells were counted using a Cellometer Auto T4 automated hemacytometer (Nexcelom). […] After infection with shRNA constructs, GFP+FACS sorted cells were plated at a density of 5×10^5 cells/well in 6-well plates. Cells were treated with AICAR at various concentrations or solvent control then counted at indicated time point.

[2] = tested on: Eμ-Myc;Arf−/− lymphoma cells; assay: Cell proliferation assay, euploid lymphoma cells; type: cell-based; conditions: various concentrations, 24 h, FIG. 2A
Procedure: (§1) All euploid (WT) and aneuploid (Ts) mouse embryonic fibroblast (MEF) lines were established as previously described (Williams, B. R. et al., 2008). MEF cells were cultured in DMEM supplemented with 10% FBS, 2 mM glutamine, 50 U/ml penicillin, and 50 U/ml streptomycin. Eμ-Myc;Arf−/− and Eμ-Myc;p53−/− lymphoma cells were established as previously described (Wendel, H. et al., 2006). Lymphoma cells were cultured in IMDM supplemented with 10% FBS, 2 mM glutamine, 50U/ml penicillin, 50 U/ml streptomycin and […] beta-mercaptoethanol. All cells were cultured at 37° C. with 5% CO2 in a humidified environment. In all experiments, cells were counted using a Cellometer Auto T4 automated hemacytometer (Nexcelom).
(§2) Exponentially growing early passage MEFs were plated at a density of 2×10^5 cells/well in 6-well plates and lymphoma cells were cultured and infected as described previously (Hemann, M. T. et al., 2003). After infection with shRNA constructs, GFP+FACS sorted cells were plated at a density of 5×10^5 cells/well in 6-well plates. Cells were treated with AICAR at various concentrations or solvent control then counted at indicated time point.

[3] = tested on: Eμ-Myc;p53−/− lymphoma cells; assay: Cell proliferation assay, aneuploid lymphoma cells; type: cell-based
Procedure: as §1
AMPK-specific shRNA constructs were generated as described previously (Silva, J. M. et al., 2005). Targeting sequences were selected based on BIOPREDsi design (Huesken, D, et al., 2005).
as §2

[4] = tested on: autophagy (LC3, BNIP3) in trisomy 13 and 16 MEFs; assay: Autophagy markers in trisomic MEFs (LC3 immunoblot, RT-qPCR, GFP-LC3 puncta); type: cell-based, mouse
Procedure: (§3) Western blotting was performed as previously described (Dickins, R. A. et al., 2005). Proteins were detected by using the following antibodies: anti-AMPKα (Cell signaling technology), anti-Hsp70 (Stressgen), and anti-β actin (Sigma). Secondary antibodies were horseradish peroxidase-conjugated anti-mouse or anti-rabbit IgG (GE Healthcare; 1:5,000).
For GFP-LC3 fluorescence imaging, wild-type GFP-LC3 and trisomic GFP-LC3 MEF cells were exposed to the indicated drug treatments in phenol red-free DMEM. All fluorescence images were acquired using a Nikon digital sight DS-Qil MC camera on a Nikon Eclipse Ti inverted microscope. All single plane images were acquired and processed using the NIS-Element AR 3.0 software.
Total RNA from MEFs was isolated using the RNeasy Mini Kit (Qiagen) according to the manufacturer's instructions. 1μg RNA was used to generate cDNAs using RETROscript kit (Ambion). qPCR was performed by mixing iQ SYBR Green Supermix (Bio-Rad) with the primers described in Table S2, and amplified using a LightCycler 480 II (Roche). The LightCycler software was used to evaluate gene expression level and normalized to a ribosomal reference gene, rpl19.

[5] = tested on: inducible Hsp70 in trisomic MEFs; assay: Inducible Hsp70 levels by immunoblotting in trisomic MEFs; type: cell-based, mouse; conditions: indicated doses, FIG. 4D
Procedure: as §3

Row | SMILES | proliferation of trisomy 1, 13, 16 and 19 cells ([1]; 100 nM, cell number after 3 days, FIG. 3A) | proliferation of trisomic/aneuploid cells versus wild-type (cell number) ([1]; single agent, cell number after 3 days, FIG. 3A/3B) | sensitivity in relation to size of the additional chromosome ([1]; FIG. 3A/3B) | sensitivity of MEFs carrying trisomies (cell count relative to non-treated control) ([1]; trisomic for chromosome 1, 13, 16 or 19, 0-0.5 mM, 72 or 144 h, FIG. 1) | sensitivity of euploid immortalized B-cells (cell count relative to control) [2] | proliferation after knock-down of AMPK ([3]; Eμ-Myc;p53−/− infected with AMPK-specific shRNA, FIG. 2B) | sensitivity of aneuploid B cells (cell count relative to control) ([3]; Eμ-Myc;p53−/−, various concentrations, 24 h, FIG. 2A) | LC3 incorporation into autophagosomes ([4]; 24 hours after treatment, LC3-GFP puncta, FIG. 4A-4C) | LC3 expression ([4]; FIG. 4A-4B) | Bnip3 expression ([4]; RT-qPCR normalized to rpl19, FIG. 4B) | Hsp70 activity (levels of inducible Hsp70) [5]
1 | C=CCNC1=C2C[C@@H](C)C[C@H](OC)[C@H](O)[C@@H](C)/C=C(\C)[C@H](OC(N)=O)[C@@H](OC)/C=C\C=C(/C)C(=O)NC(=CC1=O)C2=O [17-AAG, 17-(Allylamino)-17-demethoxygeldanamycin] | impaired | preferentially inhibited | higher sensitivity |  |  |  |  |  |  |  | 
2 | NC(=O)c1ncn([C@@H]2O[C@H](CO)[C@@H](O)[C@H]2O)c1N [AICAR, 5-aminoimidazole-4-carboxamide riboside] |  |  |  | sensitive | not sensitive | proliferate the same in the presence and absence of AICAR | sensitive | further induced | further induced | further induced | further increase
3 | CCN(CC)CCCC(C)Nc1ccnc2cc(Cl)ccc12 (stereo not drawn) [chloroquine] |  |  | correlated with the size of the additional chromosome |  |  |  |  |  |  |  | 
